Measurements taken from ChEMBL document CHEMBL1133080, “Substituted 5,7-diphenyl-pyrrolo[2,3d]pyrimidines: potent inhibitors of the tyrosine kinase c-Src” (Bioorg Med Chem Lett, 2000).

What was measured:
[1] = molecular target: Tyrosine-protein kinase CSK (Homo sapiens, UniProt P41240); test: Tested for inhibition of protein tyrosine kinase Csk phosphorylation in intact cells; type: cell-based
[2] = molecular target: Proto-oncogene tyrosine-protein kinase Src (Gallus gallus) (UniProt P00523); test: Tested for inhibition of protein tyrosine kinase c-Src phosphorylation in intact cells
[3] = molecular target: Tyrosine-protein kinase ABL (Homo sapiens, UniProt P00519+P42684); test: Tested in vitro for inhibition of non-receptor tyrosine kinase v-Abl; type: protein assay
[4] = molecular target: Vascular endothelial growth factor receptor 2 (Homo sapiens, UniProt P35968); test: Tested in vitro for inhibition of KDR-receptor tyrosine kinase
Vascular endothelial growth factor receptor 2, sequence (P35968 whole entry): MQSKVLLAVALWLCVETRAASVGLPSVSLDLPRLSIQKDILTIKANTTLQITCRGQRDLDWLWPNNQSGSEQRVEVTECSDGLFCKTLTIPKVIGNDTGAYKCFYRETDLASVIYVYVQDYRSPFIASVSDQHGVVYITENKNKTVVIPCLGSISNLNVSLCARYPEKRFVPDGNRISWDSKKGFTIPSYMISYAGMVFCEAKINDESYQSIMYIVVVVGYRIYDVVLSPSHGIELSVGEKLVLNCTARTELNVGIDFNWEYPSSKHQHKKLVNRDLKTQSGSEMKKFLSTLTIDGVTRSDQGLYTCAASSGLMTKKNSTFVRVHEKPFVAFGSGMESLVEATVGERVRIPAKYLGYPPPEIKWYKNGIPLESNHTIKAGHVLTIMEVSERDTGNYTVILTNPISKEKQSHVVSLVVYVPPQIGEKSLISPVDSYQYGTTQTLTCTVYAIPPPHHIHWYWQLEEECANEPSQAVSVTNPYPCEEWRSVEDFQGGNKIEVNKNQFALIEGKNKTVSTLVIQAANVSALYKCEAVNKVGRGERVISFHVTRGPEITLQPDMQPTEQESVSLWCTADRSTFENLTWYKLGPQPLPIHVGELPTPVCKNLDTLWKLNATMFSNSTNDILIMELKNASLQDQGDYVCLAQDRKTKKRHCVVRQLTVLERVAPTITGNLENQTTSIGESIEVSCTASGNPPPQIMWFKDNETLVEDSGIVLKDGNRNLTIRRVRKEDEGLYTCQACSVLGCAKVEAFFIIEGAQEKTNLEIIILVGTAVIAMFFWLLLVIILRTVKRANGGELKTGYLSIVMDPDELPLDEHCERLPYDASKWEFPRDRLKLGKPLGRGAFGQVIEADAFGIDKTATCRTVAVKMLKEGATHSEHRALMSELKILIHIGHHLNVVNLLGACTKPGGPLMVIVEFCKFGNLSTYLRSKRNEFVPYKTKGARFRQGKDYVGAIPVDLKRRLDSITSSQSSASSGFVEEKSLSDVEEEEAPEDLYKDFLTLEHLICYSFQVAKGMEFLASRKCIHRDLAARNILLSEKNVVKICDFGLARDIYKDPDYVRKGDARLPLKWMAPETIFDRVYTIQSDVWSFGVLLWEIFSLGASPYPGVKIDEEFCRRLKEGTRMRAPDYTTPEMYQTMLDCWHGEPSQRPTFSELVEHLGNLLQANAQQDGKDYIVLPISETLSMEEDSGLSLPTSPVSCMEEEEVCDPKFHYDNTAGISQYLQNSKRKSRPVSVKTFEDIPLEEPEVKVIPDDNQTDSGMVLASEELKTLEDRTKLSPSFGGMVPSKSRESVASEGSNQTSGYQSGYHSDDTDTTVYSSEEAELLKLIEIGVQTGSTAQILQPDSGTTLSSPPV

[5] = molecular target: T1, Proto-oncogene tyrosine-protein kinase Src (Gallus gallus, UniProt P00523); test: Tested for inhibition of protein tyrosine kinase c-Src phosphorylation
[6] = molecular target: Platelet-derived growth factor receptor (Mus musculus, UniProt P05622+P26618); test: Inhibition of PDGF-receptor kinase; type: protein-complex assay
[7] = molecular target: Cyclin-dependent kinase 1 (Homo sapiens, UniProt P06493); test: Tested in vitro for inhibition of serine/threonine kinase Cdc2
Cyclin-dependent kinase 1, sequence (P06493 whole entry): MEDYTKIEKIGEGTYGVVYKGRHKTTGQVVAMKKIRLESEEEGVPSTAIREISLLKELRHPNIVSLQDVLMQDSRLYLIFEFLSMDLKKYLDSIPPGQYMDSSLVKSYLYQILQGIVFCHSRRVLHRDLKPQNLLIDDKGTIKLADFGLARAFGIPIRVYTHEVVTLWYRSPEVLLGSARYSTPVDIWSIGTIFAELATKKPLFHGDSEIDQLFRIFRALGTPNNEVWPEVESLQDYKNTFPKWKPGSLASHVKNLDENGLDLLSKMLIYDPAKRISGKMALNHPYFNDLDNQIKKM

[8] = molecular target: T2, Epidermal growth factor receptor (Homo sapiens, UniProt P00533); test: Tested for inhibition of EGF-receptor tyrosine kinase in intact cells
T2 sequence (P00533 whole entry): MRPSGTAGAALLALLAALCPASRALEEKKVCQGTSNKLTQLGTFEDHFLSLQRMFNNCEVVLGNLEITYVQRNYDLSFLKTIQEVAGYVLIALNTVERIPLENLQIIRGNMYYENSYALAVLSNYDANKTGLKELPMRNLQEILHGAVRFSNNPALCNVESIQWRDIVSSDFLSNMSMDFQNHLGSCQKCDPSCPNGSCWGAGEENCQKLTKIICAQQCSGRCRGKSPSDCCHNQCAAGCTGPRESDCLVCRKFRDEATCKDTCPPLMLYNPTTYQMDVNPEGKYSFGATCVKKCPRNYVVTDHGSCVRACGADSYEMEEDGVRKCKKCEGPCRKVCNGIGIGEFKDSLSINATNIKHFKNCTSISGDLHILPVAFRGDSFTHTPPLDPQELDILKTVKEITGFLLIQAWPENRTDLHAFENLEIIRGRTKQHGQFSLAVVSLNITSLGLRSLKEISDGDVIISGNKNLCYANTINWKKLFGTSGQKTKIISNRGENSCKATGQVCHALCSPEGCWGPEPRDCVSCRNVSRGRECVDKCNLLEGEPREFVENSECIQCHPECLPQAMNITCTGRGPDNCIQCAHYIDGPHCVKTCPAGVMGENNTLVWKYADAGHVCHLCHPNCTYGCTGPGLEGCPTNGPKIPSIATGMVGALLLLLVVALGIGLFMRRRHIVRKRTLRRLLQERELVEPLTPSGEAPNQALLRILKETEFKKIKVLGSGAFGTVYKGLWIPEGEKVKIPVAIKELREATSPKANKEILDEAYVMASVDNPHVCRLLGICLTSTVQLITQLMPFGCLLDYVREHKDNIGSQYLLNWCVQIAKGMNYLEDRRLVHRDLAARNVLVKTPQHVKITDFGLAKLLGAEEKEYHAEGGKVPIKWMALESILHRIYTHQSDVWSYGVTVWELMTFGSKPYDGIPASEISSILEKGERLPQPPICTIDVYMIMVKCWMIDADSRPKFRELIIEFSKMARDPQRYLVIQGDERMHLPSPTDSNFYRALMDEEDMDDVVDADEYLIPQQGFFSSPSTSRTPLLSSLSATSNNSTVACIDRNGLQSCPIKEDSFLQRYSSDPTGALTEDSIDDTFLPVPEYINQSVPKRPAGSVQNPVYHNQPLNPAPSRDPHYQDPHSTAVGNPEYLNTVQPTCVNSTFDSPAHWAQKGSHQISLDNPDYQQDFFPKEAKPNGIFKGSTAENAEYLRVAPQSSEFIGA

[9] = molecular target: T2, Epidermal growth factor receptor; test: Tested in vitro for inhibition of EGF-receptor tyrosine kinase
[10] = molecular target: T1, Proto-oncogene tyrosine-protein kinase Src; test: Inhibition of protein tyrosine kinase c-Src

Tyrosine-protein kinase CSK, sequence (P41240 whole entry): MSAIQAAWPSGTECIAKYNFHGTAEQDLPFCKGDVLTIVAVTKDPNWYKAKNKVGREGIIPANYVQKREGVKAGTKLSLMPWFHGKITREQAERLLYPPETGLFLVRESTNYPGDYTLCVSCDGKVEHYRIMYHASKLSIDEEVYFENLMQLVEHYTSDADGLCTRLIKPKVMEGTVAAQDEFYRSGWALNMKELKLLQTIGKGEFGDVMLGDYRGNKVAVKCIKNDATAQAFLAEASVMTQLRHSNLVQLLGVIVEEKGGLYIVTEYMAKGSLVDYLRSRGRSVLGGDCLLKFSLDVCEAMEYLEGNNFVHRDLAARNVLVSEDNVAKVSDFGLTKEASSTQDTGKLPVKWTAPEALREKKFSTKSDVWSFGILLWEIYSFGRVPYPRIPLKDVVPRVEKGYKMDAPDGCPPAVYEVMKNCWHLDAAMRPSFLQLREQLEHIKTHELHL

COc1cccc(-c2cn(-c3ccccc3)c3ncnc(N)c23)c1
IC50 [1]: > 5000 nM
IC50 [2]: 3300 nM
IC50 [3]: 60 nM
IC50 [4]: > 1000 nM
IC50 [5]: 50 nM
IC50 [6]: 2500 nM
IC50 [7]: 43000 nM

O=c1[nH]cnc2c1c(-c1ccccc1)cn2-c1ccccc1
IC50 [5]: 10000 nM

COc1cccc(-c2cn(-c3ccc(CCN(C)CCO)cc3)c3ncnc(N)c23)c1
IC50 [1]: > 5000 nM
IC50 [2]: 200 nM
IC50 [8]: 10000 nM
IC50 [3]: 300 nM
IC50 [4]: > 1000 nM
IC50 [5]: 30 nM
IC50 [6]: 300 nM
IC50 [7]: > 10000 nM
IC50 [9]: 300 nM

CCOC(=O)c1ccc(-c2cn(-c3ccccc3)c3ncnc(N)c23)cc1
IC50 [3]: > 10000 nM
IC50 [4]: 1100 nM
IC50 [5]: 10000 nM
IC50 [7]: > 10000 nM
IC50 [9]: 1300 nM

Nc1ncnc2c1c(-c1ccccc1)cn2-c1ccc(CNCCO)cc1
IC50 [1]: 4300 nM
IC50 [2]: 700 nM
IC50 [3]: 1000 nM
IC50 [5]: 30 nM
IC50 [7]: 82500 nM
IC50 [9]: 1400 nM

Nc1ncnc2c1c(-c1ccccc1)cn2-c1ccccc1CO
IC50 [3]: 3400 nM
IC50 [5]: 300 nM
IC50 [7]: > 10000 nM
IC50 [9]: 1100 nM

COc1cccc(-c2cn(-c3cccc(CO)c3)c3ncnc(N)c23)c1
IC50 [3]: 50 nM
IC50 [4]: > 1000 nM
IC50 [5]: 60 nM
IC50 [7]: 33000 nM
IC50 [9]: 800 nM

Clc1ncnc2c1c(-c1ccccc1)cn2-c1ccccc1
IC50 [5]: 8000 nM

Cc1ccccc1-c1cn(-c2ccccc2)c2ncnc(N)c12
IC50 [5]: 6000 nM
IC50 [7]: 90000 nM
IC50 [9]: 2650 nM

COc1cccc(-c2cn(-c3ccc(CNCCO)cc3)c3ncnc(N)c23)c1
IC50 [1]: > 5000 nM
IC50 [2]: 500 nM
IC50 [8]: 6400 nM
IC50 [3]: 230 nM
IC50 [4]: > 1000 nM
IC50 [5]: 30 nM
IC50 [6]: 600 nM
IC50 [7]: > 10000 nM
IC50 [9]: 300 nM

Nc1ncnc2c1c(-c1ccccc1)nn2-c1ccccc1
IC50 [10]: 500 nM

COc1cccc(-c2cn(-c3ccc(CC(=O)NCCO)cc3)c3ncnc(N)c23)c1
IC50 [1]: > 5000 nM
IC50 [2]: 3900 nM
IC50 [3]: 220 nM
IC50 [4]: > 1000 nM
IC50 [5]: 20 nM
IC50 [7]: > 10000 nM
IC50 [9]: 800 nM

Nc1ncnc2c1c(-c1ccccc1)cn2-c1ccc(CO)cc1
IC50 [3]: 70 nM
IC50 [4]: 600 nM
IC50 [5]: 20 nM
IC50 [7]: 30000 nM
IC50 [9]: 700 nM

Nc1ncnc2c1c(-c1ccccc1)cn2-c1ccccc1
IC50 [1]: > 5000 nM
IC50 [2]: 3500 nM
IC50 [3]: 20 nM
IC50 [5]: 100 nM
IC50 [7]: 54000 nM

Nc1ncnc2c1c(-c1ccccc1)cn2-c1ccccc1CNCCO
IC50 [5]: 5000 nM
IC50 [7]: > 10000 nM
IC50 [9]: 6400 nM

CNc1ncnc2c1c(-c1ccccc1)cn2-c1ccccc1
IC50 [3]: > 10000 nM
IC50 [5]: > 10000 nM
IC50 [7]: > 10000 nM
IC50 [9]: 31000 nM

Nc1ncnc2c1c(-c1cccc(Cl)c1)cn2-c1ccccc1
IC50 [3]: 600 nM
IC50 [4]: 1000 nM
IC50 [5]: 200 nM
IC50 [7]: > 100000 nM
IC50 [9]: 700 nM

Nc1ncnc2c1c(-c1ccccc1)cn2-c1cccc(CO)c1
IC50 [1]: > 5000 nM
IC50 [2]: > 5000 nM
IC50 [8]: 12000 nM
IC50 [3]: 200 nM
IC50 [5]: 60 nM
IC50 [6]: 10000 nM
IC50 [7]: 47000 nM
IC50 [9]: 600 nM

COc1ccc(-c2cn(-c3ccccc3)c3ncnc(N)c23)cc1
IC50 [3]: 400 nM
IC50 [4]: 200 nM
IC50 [5]: 150 nM
IC50 [7]: > 10000 nM
IC50 [9]: 350 nM

Nc1ncnc2c1c(-c1ccccc1)cn2-c1cccc(CNCCO)c1
IC50 [1]: 5000 nM
IC50 [2]: 4000 nM
IC50 [4]: 3600 nM
IC50 [5]: 10 nM
IC50 [7]: > 10000 nM
IC50 [9]: 3400 nM
